The subject of one data set is Rat AMPA receptors. Put plainly: AMPA-evoked currents, Xenopus laevis oocytes injected with rat cortex poly(A+) mRNA (two-electrode voltage clamp). It is filed as cell-based. Conditions: geometric mean. The method, then: Compounds were tested by bath application.
(In general: Two-electrode voltage clamp holds a large cell at a set potential and records current.)

For a further data set, the system named is male C57Bl/6 mice. Put plainly: Spontaneous alternation in a T-maze in mice. It is filed as in vivo, mouse. Conditions: 180 s inter-trial delay. The method, then:
Novel object recognition and T-maze studies were conducted respectively in male OFA rats (150–175 g, Charles River, Saint-Germain-Nuelles, France) and male C57Bl/6 mice (5.5–6.5 month-old, Charles River, Saint-Germain-Nuelles, France). Animals were housed in collective cages with continuous access to tap water and food on a 12 h light-dark cycle, in a temperature-controlled (21 ± 1°C) and ventilated room. On completion of studies subjects were euthanized by either CO2 inhalation or intraperitoneal (i.p.) lethal pentobarbital injection. The novel object recognition test was used as the primary in vivo screening assay to identify AMPA-PAMs. The T-maze task was performed using a modified continuous performance procedure previously described in mice. […]
Behavioral testing was conducted in a T-shaped maze made of grey Plexiglas using mice. […] Photoelectric cells detected the position of the mouse on the maze. […]
Both alternation performance and latency of entry were assessed. […] The successive sequence of visits for the 7 first trials determined the level of alternation. A percentage of alternation was calculated for each mouse, and corresponded to the number of alternations performed relative to the number maximal of alternation (n = 6). […] The mean latency of entry from trial 2 to trial 7 was calculated for each mouse. […]

Data set [1] is described as follows: Solubility noted in co-crystallization experiments with GluA2. It is filed as physicochemical. The following applies: prevented co-crystallization with GluA2.
On the set-up of data set [2]: method as in previous kinetic experiments (reference not given). Conditions: 0.3 mg/kg oral, rats; ref previous kinetic experiments (reference not given); read-out: Cerebral Cmax; cited from earlier work.
Details of data set [3]: method as in previous kinetic experiments (reference not given). Conditions: 0.3 mg/kg oral, mice; ref previous kinetic experiments (reference not given); read-out: Cerebral Cmax; cited from earlier work.
For data set [4], the system named is CA3-CA1 hippocampal synapses. Also on record: method as in PMID 28603025. Conditions: cited from earlier work.
The next data set concerns mature form of BDNF. More on the design: method as in PMID 7718245. Conditions: aged rats, from the dose of 1 mg/kg; cited from earlier work.
Another data set deals with GABA (non-selective). Put plainly: Binding assay, [3H]GABA.
Another data set has as its system α1 (non-selective). As to the kind of experiment: Binding assay, [3H]prazosin.
The subject of another data set is K^+V channel. Put plainly: Binding assay, [125I]α-dendrotoxin.
A further data set relates to PDE4 (h). Put plainly: Enzyme and cell-based assay, [3H]cAMP + cAMP (1 μM).
For another data set, the system named is Phospholipase A2. Put plainly: Enzyme and cell-based assay, [3H]phosphatidylethanolamine.
In data set [5] the target is AMPA/Kainate chimerae GluA1(K2S1) (Homo sapiens, UniProt P42261, A392I/A426D/A443L/A444R/A447S/A473Q/A536S/C542Y/D385S/D386Q/D417E/D470A/D533N/DEL395-402/E430Y/E441D/E457R/E501K/E538D/F388G/F429L/F545L/G479R/G484H/H449I/I446L/I458L/I518Y/I548L/INS382DPASGLNM/INS391N/INS555VIA/K448T/K472G/K519R/K523G/K525N/L422F/L456I/L497Y/M421L/M517L/N383T/N425S/N427K/P469D/Q405S/Q428P/Q522N/R455E/R467Q/R485K/S453T/S460E/S511T/S524T/T408S/T471N/T494A/V389K/V404L/V440I/V450L/V482I/V488L/V544L/V552C/Y381T/Y409L/Y435F/Y452F/Y483D/Y537P). Put plainly: Glutamate-evoked current in oocytes expressing AMPA/Kainate chimera. The following applies: n = 5.

pEC50: −log10 of the molar value. Values joined by “and” are separate entries in the source; they are usually repeats but may differ in a detail not shown here. Equal entries are not always repeated. Where two headings read alike, the source gives them in different places.

A word on the pEC50: it is −log10 of the EC50, conventionally taken in molar units. In general, Cmax refers to the maximum level reached in the sampled fluid or tissue.

Sequence of AMPA/Kainate chimerae GluA1(K2S1) (P42261 with tags, fused parts or gaps with the stated changes): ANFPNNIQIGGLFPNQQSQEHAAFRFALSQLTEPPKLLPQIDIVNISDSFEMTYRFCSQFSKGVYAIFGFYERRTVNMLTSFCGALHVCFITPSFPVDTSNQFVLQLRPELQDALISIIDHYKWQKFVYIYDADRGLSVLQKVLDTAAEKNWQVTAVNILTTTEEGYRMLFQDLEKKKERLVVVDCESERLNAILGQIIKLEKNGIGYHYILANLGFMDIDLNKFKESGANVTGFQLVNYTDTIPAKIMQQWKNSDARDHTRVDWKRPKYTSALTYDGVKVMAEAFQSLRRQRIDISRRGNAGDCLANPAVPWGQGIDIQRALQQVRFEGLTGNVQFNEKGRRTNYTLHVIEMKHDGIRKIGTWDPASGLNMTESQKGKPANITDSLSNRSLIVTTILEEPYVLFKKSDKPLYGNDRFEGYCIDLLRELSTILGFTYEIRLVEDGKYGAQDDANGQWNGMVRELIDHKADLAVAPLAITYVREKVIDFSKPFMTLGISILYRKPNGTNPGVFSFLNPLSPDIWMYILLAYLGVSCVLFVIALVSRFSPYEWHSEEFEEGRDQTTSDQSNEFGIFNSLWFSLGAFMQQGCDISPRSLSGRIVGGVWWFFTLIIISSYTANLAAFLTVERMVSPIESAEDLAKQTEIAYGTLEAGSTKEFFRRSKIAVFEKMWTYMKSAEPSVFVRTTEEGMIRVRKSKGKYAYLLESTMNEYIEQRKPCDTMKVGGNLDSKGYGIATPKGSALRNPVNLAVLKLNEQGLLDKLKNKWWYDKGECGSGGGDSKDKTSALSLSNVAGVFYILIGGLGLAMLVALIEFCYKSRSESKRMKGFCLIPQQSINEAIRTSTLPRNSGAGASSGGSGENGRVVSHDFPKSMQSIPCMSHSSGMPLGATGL

In turn, `O=C1c2cc3nnn(CCc4cccc(F)c4)c(=O)c3cc2OCN1C1CC1` [S 47445, 8-cyclopropyl-3-[2-(3-fluorophenyl)ethyl]-7,8-dihydro-3H-[1,3]oxazino[6,5-g][1,2,3]benzotriazine-4,9-dione] had an EC2X with Rat AMPA receptors (concentration giving a two-fold increase in current amplitude) of 1.53 µM. Further, the pEC50 in the data set on Rat AMPA receptors (potentiation of 10 μM AMPA-evoked current) was 5.19 and 5.18. The “Spontaneous alternation versus vehicle” value is listed as “improved the performance of spontaneous alternation” with male C57Bl/6 mice (0.3 mg/kg i.p. acute, p≤0.05) and “improved the performance of spontaneous alternation” in the data set on male C57Bl/6 mice (1 mg/kg i.p. acute, p = 0.07). In addition, the Solubility result in data set [1] is given as “poor solubility”. Further, the Cmax in data set [2] and in [3] was 0.1 to 0.2 µM throughout. Moreover, the “Age-related deficit of LTP” value in data set [4] (10 mg/kg chronic, old alert mice) is “significantly counteracted the deficit of LTP”. For the same molecule, the “Long term potentiation (LTP) versus vehicle” value in data set [4] (10 mg/kg p.o. acute, young alert mice) is on record as “significantly increased long term potentiation”. Besides, the “Neurotrophic effect on BDNF proteins” value in the data set on mature form of BDNF is “inducing mature form of BDNF proteins”. Further, the “% Inhibition of control specific binding” value in the data set with GABA (non-selective) (S 47445 1.0E-05 M) is given as 7%; in the data set with GABA (non-selective) (S 47445 1.0E-07 M) it was 4%; in the data set on α1 (non-selective) (S 47445 1.0E-05 M) it was 1%; with α1 (non-selective) (S 47445 1.0E-07 M), -5%; in the data set with K^+V channel (S 47445 1.0E-05 M), -2%; in the data set on K^+V channel (S 47445 1.0E-07 M) it was -6%. In addition, the “% Inhibition of control specific binding” value is recorded as -12% in the data set on PDE4 (h) (S 47445 1.0E-05 M), 20% in the data set on PDE4 (h) (S 47445 1.0E-07 M), -4% in the data set on Phospholipase A2 (S 47445 1.0E-05 M) and 0% in the data set on Phospholipase A2 (S 47445 1.0E-07 M). Further, in data set [5], the “Potentiating effect on glutamate-evoked current” value is recorded as “lost”.
